# Measured values: patent US20140242093A1, “METHODS AND COMPOSITIONS FOR MODULATING THE INNATE IMMUNE RESPONSE AND/OR MYOGENESIS IN A MAMMALIAN SUBJECT” (FRED HUTCHINSON CANCER RESEARCH CENTER, priority 2011, published 2014)
# Tested on: control human primary myoblasts
# Assay: Expression microarray of primary myoblasts transduced with lentivirus carrying DUX4-fl, DUX4-s or GFP
# Method: Primary human myoblasts were collected and cultured as previously described (Snider et al., 2010). Primary myoblasts were maintained at or below 70% confluency for proliferation. For differentiation, cells were allowed to reach 95-100% confluency in growth medium. Once confluency was reached, the cells were changed to differentiation medium (F10 media supplemented with 1% horse serum, 10 μg/mL insulin, and 10 μg/mL transferrin, penicillin/streptomycin) and maintained for 4 days. Human RD cells were grown in DMEM in 10% bovine calf serum (Hyclone) and penicillin/streptomycin. The primary myoblasts were transduced with lentivirus carrying DUX-fl, DUX4- or GFP (MOI=15).
# Expression microarrays were performed on the transduced cells at 24 hours after transduction as follows. […] Samples were analyzed by Illumina Human Whole Genome microarrays. Probe intensities were corrected, normalized, and summarized by the Lumi package of Bioconductor (Du et al., 2008). Differentially expressed genes were identified by the LIMMA package of Bioconductor (Wettenhall and Smyth, 2004). Gene set enrichment analysis (GSEA) was performed using the Bioconductor GOstats package (Falcon and Gentleman, 2007).
substance,measurement,setting,value
"DUX4-fl: full-length DUX4 protein (SEQ ID NO:110), expressed from lentiviral or pCS2 vectors or in vitro translated",fc of MYPOP (expression array),Refseq NM_001012643.2,−1.053
same,PRAMEF5 expression fc,Refseq NM_001013407.1,7.35
same,HNRNPCL1 expression fc,Refseq NM_001013631.1,3.484
same,RFPL4B expression fc,Refseq NM_001013734.2,8.34
same,ODF3B fc,Refseq NM_001014440.2,−1.1
same,DNAJC25 expression fc,Refseq NM_001015882.2,1.995
same,KCNK2 fc,Refseq NM_001017425.2,−1.154
same,CCDC58 expression fc,Refseq NM_001017928.2,2.001
same,fc of ATP6AP1L (expression array),Refseq NM_001017971.1,−1.049
same,SH3PXD2B fc,Refseq NM_001017995.1,−1.101
same,ZBTB16 expression fc,"Refseq NM_001018011.1, cultured human skeletal muscle",−2.037
same,fc of SERBP1 (expression array),Refseq NM_001018069.1,−0.241
same,SOD2 expression fc,"Refseq NM_001024466.1, cultured human skeletal muscle",−4.617
same,fc of RUNX2 (expression array),Refseq NM_001024630.2,−1.019
same,CLK1 expression fc,Refseq NM_001024646.1,1.84
same,fc of TGFBR2 (expression array),Refseq NM_001024847.1,−1.017
same,TSPAN4 fc,Refseq NM_001025235.1,−1.175
same,fc of RFX5 (expression array),Refseq NM_001025603.1,−1.052
same,PSRC1 fc,Refseq NM_001032290.1,−1.126
same,OAS1 expression fc,"Refseq NM_001032409.1, cultured human skeletal muscle",−4.607
same,ENTPD8 expression fc,Refseq NM_001033113.1,4.073
same,RHOT1 fc,Refseq NM_001033566.1,−1.074
same,CYFIP2 fc,Refseq NM_001037333.1,−1.081
same,fc of PHYH (expression array),Refseq NM_001037537.1,−1.007
same,fc of EFEMP1 (expression array),Refseq NM_001039348.1,−1.03
same,PRAMEF10 expression fc,Refseq NM_001039361.1,6.064
same,ETNK1 expression fc,Refseq NM_001039481.1,1.892
same,LOC440053 expression fc,Refseq NM_001039615.1,3.919
same,CBLN3 fc,Refseq NM_001039771.2,−1.144
same,HEY1 expression fc,Refseq NM_001040708.1,2.18
same,fc of UHRF1 (expression array),Refseq NM_001048201.1,−0.2091
same,DBNDD2 expression fc,Refseq NM_001048223.1,2.987
same,NCOR2 fc,Refseq NM_001077261.1,−1.177
same,fc of NFKB2 (expression array),Refseq NM_001077493.1,−1.011
same,fc of SLC29A1 (expression array),Refseq NM_001078174.1,−0.5111
same,DYNC2H1 expression fc,Refseq NM_001080463.1,3.721
same,PRAMEF12 expression fc,Refseq NM_001080830.1,7.802
same,FRG2B expression fc,Refseq NM_001080998.1,1.993
same,DEFB103A expression fc,Refseq NM_001081551.2,6.442
same,CPSF4 fc,Refseq NM_001081559.1,−1.171
same,fc of GPD2 (expression array),Refseq NM_001083112.1,−0.3652
same,fc of GPR1 (expression array),Refseq NM_001098199.1,−1.054
same,HLA-F expression fc,"Refseq NM_001098479.1, cultured human skeletal muscle",−1.932
same,RFPL3 expression fc,Refseq NM_001098535.1,8.144
same,PRR4 expression fc,Refseq NM_001098538.1,3.562
same,FAM156B fc,Refseq NM_001099684.1,−1.113
same,PRAMEF19 expression fc,Refseq NM_001099790.1,2.336
same,PRAMEF20 expression fc,Refseq NM_001099852.1,4.795
same,PRAMEF14 expression fc,Refseq NM_001099854.1,3.186
same,PRAMEF21 expression fc,Refseq NM_001100114.1,2.487
same,LOC729384 expression fc,Refseq NM_001105522.1,6.832
same,KHDC1L expression fc,Refseq NM_001126063.2,8.012
same,CSAG3 expression fc,Refseq NM_001129826.1,5.871
same,LOC399940 expression fc,Refseq NM_001136118.1,4.727
same,LOC440563 expression fc,Refseq NM_001136561.1,5.312
same,FAM90A7 expression fc,Refseq NM_001136572.1,3.199
same,CYCSL1 expression fc,Refseq NR_001561.1,2.506
same,MGC10997 expression fc,Refseq NR_001565.1,2.426
same,FTHL3 expression fc,"Refseq NR_002201.1, cultured human skeletal muscle",−2.577
same,FTHL11 expression fc,"Refseq NR_002204.1, cultured human skeletal muscle",−2.085
same,FTHL12 expression fc,"Refseq NR_002205.1, cultured human skeletal muscle",−1.948
same,RPPH1 expression fc,Refseq NR_002312.1,2.037
same,RFPL1S expression fc,Refseq NR_002727.1,8.396
same,SNORD56 expression fc,Refseq NR_002739.1,1.855
same,fc of TRIM78P (expression array),Refseq NR_002777.2,−0.9991
same,HNRPA1L-2 expression fc,Refseq NR_002944.2,1.921
same,RMRP expression fc,Refseq NR_003051.2,2.267
same,fc of LOC400759 (expression array),Refseq NR_003133.1,−0.7622
same,HNRPDL expression fc,Refseq NR_003249.1,2.175
same,SDHALP1 expression fc,Refseq NR_003264.1,3.276
same,RN5S9 expression fc,Refseq NR_023371.1,4.191
same,KIAA0114 expression fc,Refseq NR_024031.1,1.841
same,NCRNA00092 expression fc,Refseq NR_024129.1,2.395
same,MIR503 expression fc,Refseq NR_030228.1,1.91
same,MIR2278 expression fc,Refseq NR_031755.1,2.412
same,USP41 fc,Refseq XM_036729.5,−1.127
same,TRIM64 expression fc,Refseq XM_061890.11,4.943
same,LOC136157 expression fc,Refseq XM_069743.3,8.299
same,LOC196120 expression fc,Refseq XM_114987.3,8.179
same,LOC646066 expression fc,Refseq XM_116384.2,4.391
same,LOC284428 expression fc,Refseq XM_208203.5,8.023
same,LOC285697 expression fc,Refseq XM_210642.1,3.783
same,LOC342934 expression fc,Refseq XM_292724.5,2.988
same,LOC340096 expression fc,Refseq XM_293943.2,7.382
same,LOC389633 expression fc,Refseq XM_372030.4,1.807
same,LOC390031 expression fc,Refseq XM_372343.1,8.331
same,LOC390530 fc,Refseq XM_372543.2,−1.104
same,LOC391045 expression fc,Refseq XM_372780.3,2.166
same,LOC391092 expression fc,Refseq XM_372792.2,1.837
same,LOC391742 expression fc,Refseq XM_373056.1,5.733
same,LOC391747 expression fc,Refseq XM_373059.2,2.789
same,LOC391761 expression fc,Refseq XM_373073.2,3.009
same,LOC391764 expression fc,Refseq XM_373076.3,5.821
same,LOC391766 expression fc,Refseq XM_373077.2,5.724
same,LOC391767 expression fc,Refseq XM_373078.1,5.492
same,LOC399937 expression fc,Refseq XM_374917.3,1.841
same,LOC399939 expression fc,Refseq XM_374919.3,6.931
same,LOC401860 expression fc,Refseq XM_377445.3,4.272
same,LOC402199 expression fc,Refseq XM_377875.2,4.392
same,LOC646103 expression fc,Refseq XM_377879.3,4.658
same,LOC402207 expression fc,Refseq XM_377884.2,4.903
same,LOC440040 expression fc,Refseq XM_495873.4,7.534
same,FAM90A9 expression fc,Refseq XM_496956.4,2.248
same,FAM90A12 expression fc,Refseq XM_496961.3,1.774
same,LOC441584 expression fc,Refseq XM_497258.1,7.781
same,LOC441019 expression fc,"Refseq XM_498969.2, cultured human skeletal muscle",−2.107
same,PEG10 expression fc,Refseq XM_499343.2,1.935
same,LOC642362 expression fc,Refseq XM_925891.1,8.016
same,LOC642538 expression fc,Refseq XM_926027.2,1.792
same,LOC653111 expression fc,Refseq XM_926073.2,3.139
same,LOC642843 expression fc,Refseq XM_926241.2,2.728
same,LOC653192 expression fc,Refseq XM_926437.2,8.228
same,LOC653194 expression fc,Refseq XM_926449.1,3.633
same,LOC643731 expression fc,Refseq XM_927019.1,1.903
same,LOC653506 fc,Refseq XM_927769.1,−1.144
same,LOC645137 expression fc,Refseq XM_928167.2,2.323
same,fc of LOC653583 (expression array),Refseq XM_928224.2,−1.02
same,LOC645373 expression fc,Refseq XM_928412.1,2.891
same,LOC645558 expression fc,Refseq XM_928577.2,4.803
same,LOC645669 expression fc,Refseq XM_928680.1,8.202
same,LOC653656 expression fc,Refseq XM_928688.3,7.897
same,LOC653657 expression fc,Refseq XM_928697.2,7.857
same,LOC646698 expression fc,Refseq XM_929644.2,6.012
same,LOC646754 expression fc,Refseq XM_929704.2,5.11
same,LOC646914 expression fc,Refseq XM_929877.1,2.569
same,fc of LOC338758 (expression array),Refseq XM_931359.2,−1.005
same,LOC644739 fc,Refseq XM_933679.1,−1.165
same,LOC642127 expression fc,Refseq XM_936272.2,6.112
same,LOC642219 expression fc,Refseq XM_936370.2,4.799
same,LOC285299 expression fc,Refseq XM_936463.2,2.84
same,fc of BEXL1 (expression array),Refseq XM_936467.2,−1.018
same,LOC653978 expression fc,Refseq XM_937424.1,3.554
same,LOC646508 expression fc,Refseq XM_937570.1,2.498
same,LOC648533 expression fc,Refseq XM_937587.1,2.284
same,LOC342933 expression fc,Refseq XM_938208.2,3.752
same,PRAMEF17 expression fc,Refseq XM_938420.2,4.223
same,fc of LOC649425 (expression array),Refseq XM_938508.1,−0.2065
same,LOC649563 expression fc,Refseq XM_938635.2,2.425
same,LOC650167 expression fc,Refseq XM_939249.1,3.363
same,LOC654101 expression fc,Refseq XM_939354.1,5.034
same,MGC61598 expression fc,Refseq XM_939432.1,2.969
same,LOC651308 expression fc,Refseq XM_940443.1,8.169
same,ZC3H5 fc,Refseq XM_940903.2,−1.155
same,LOC651816 expression fc,Refseq XM_941060.1,1.836
same,LOC652080 expression fc,Refseq XM_941404.1,1.987
same,LOC652349 expression fc,Refseq XM_941777.1,2.835
same,LOC652433 expression fc,Refseq XM_941875.1,3.022
same,LOC651390 expression fc,Refseq XM_942401.1,1.937
same,LOC727846 expression fc,Refseq XM_001126140.1,2.175
same,LOC730278 fc,Refseq XM_001126471.1,−1.092
same,PARP10 expression fc,"Refseq XM_001127571.1, cultured human skeletal muscle",−2.064
same,fc of LOC730996 (expression array),Refseq XM_001128017.1,−0.2204
same,LOC342900 expression fc,Refseq XM_001129035.1,7.391
same,LOC729368 expression fc,Refseq XM_001130065.2,5.416
same,LOC729458 expression fc,Refseq XM_001130308.2,8.247
same,LOC729694 expression fc,Refseq XM_001131061.1,4.029
same,LOC729698 expression fc,Refseq XM_001131072.1,3.539
same,LOC729700 expression fc,Refseq XM_001131081.1,4.817
same,LOC729706 expression fc,Refseq XM_001131091.1,4.227
same,LOC729724 expression fc,Refseq XM_001131132.1,3.038
same,LOC729731 expression fc,Refseq XM_001131140.1,5.007
